Key:
[1] = target: T1, human estrogen receptor α (ERα) (Homo sapiens, UniProt P03372); experiment: lyticase Yeast Estrogen Screen; format: cell-based; conditions: L‐YES; based on PC10 values, 3 replicates, considering molecular weights
T1 sequence (P03372 1-595): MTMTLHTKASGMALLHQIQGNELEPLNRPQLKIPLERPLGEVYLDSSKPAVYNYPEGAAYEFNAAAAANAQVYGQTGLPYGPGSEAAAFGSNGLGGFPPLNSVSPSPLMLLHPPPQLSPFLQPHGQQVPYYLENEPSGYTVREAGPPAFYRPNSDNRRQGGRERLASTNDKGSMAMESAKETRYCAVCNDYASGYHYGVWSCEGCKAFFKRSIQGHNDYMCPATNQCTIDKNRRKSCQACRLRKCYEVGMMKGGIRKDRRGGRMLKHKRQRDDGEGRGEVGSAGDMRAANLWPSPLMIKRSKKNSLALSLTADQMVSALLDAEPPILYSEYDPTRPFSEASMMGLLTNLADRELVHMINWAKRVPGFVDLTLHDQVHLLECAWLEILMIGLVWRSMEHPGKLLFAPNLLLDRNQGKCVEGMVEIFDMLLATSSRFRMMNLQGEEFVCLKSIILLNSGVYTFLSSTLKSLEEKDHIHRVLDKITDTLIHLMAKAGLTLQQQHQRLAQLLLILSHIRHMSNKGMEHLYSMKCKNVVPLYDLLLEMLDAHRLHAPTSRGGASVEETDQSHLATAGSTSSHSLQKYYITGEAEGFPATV

[2] = target: T1, human estrogen receptor α (ERα); experiment: ERα‐CALUX human cell-based reporter gene assay; conditions: based on PC10 values, 3 replicates, considering molecular weights
aquatic organisms = conditions: threshold for effluents, tenfold dilution assumed; ref Loos et al., 2018; cited from earlier work

REP (relative estrogenic potency in comparison to 17β‐estradiol) [1]	REP (relative estrogenic potency in comparison to 17β‐estradiol) [2]	SMILES	10× diluted PNEC (aquatic organisms) [ng/L]
4.5E−05	4.2E−05	CC(C)(c1ccc(O)cc1)c1ccc(O)cc1 [BPA, bisphenol A]	–
–	–	C#C[C@]1(O)CC[C@H]2[C@@H]3CCc4cc(O)ccc4[C@H]3CC[C@@]21C [EE2, 17α‐ethinylestradiol]	0.35
